Consider six molecules from patent publication US6455528B1, “Piperazine compounds and medicinal use thereof” (Mitsubishi Pharma Corporation, priority 1997, dated 2002).

The structures appear in SMILES notation. Counter-ions that a name gives are not always drawn.

The subject of one data set is IL-10 production. In words: Effect on IL-10 production in mice (in vivo), LPS-induced. To be noted: serum IL-10 90 min after LPS 500 μg/kg i.p.; test compound orally 30 min before LPS; ratio relative to test compound non-administration group. The protocol:
(§1) Since the TNF-α concentration in serum reaches a peak at 90 min after LPS administration, the TNF-α concentration in the serum at this point was measured using FACTOR TEST mTNF-α (manufactured by Genzyme) and the IL-10 concentration at the same point of time was also measured using Murine IL-10 ELISA Kit (manufactured by Endogen). […] The effect of the test compound on the TNF-α production and IL-10 production was calculated by the following formula as the ratio relative to the test compound non-administration group.

Another data set relates to TNF-α production. In words: Effect on TNF-α production in mice (in vivo), LPS-induced. To be noted: serum TNF-α 90 min after LPS 500 μg/kg i.p.; test compound orally 30 min before LPS; ratio relative to test compound non-administration group. The protocol: as §1

`CC(=O)NC(C)c1ccc(CN2CCN(c3ccc(F)cc3)CC2)cc1` (stereo not shown) [Example 48, N-(1-(4-((4-(4-Fluorophenyl)piperazin-1-yl)methyl)phenyl)ethyl)acetamide] showed a melting point of 101 to 103 °C. In addition, the “IL-10 production (%)” value in the data set on IL-10 production is on record as 888%. For the same molecule, the “TNF-α production (%)” value with TNF-α production was found to be 12%.

`CC(=O)NC(C)(C)c1ccc(CN2CCN(c3ccc(F)cc3)CC2)cc1` [Example 51, N-(1-Methyl-1-(4-((4-(4-fluorophenyl)-piperazin-1-yl)methyl)phenyl)ethyl)acetamide] registered a melting point of 104.5 to 106 °C. In addition, in the data set on IL-10 production, the “IL-10 production (%)” value was 533%. The “TNF-α production (%)” value in the data set on TNF-α production is 16%.

With `CC(=O)NC(C)c1ccc(CN2CCN(c3ccccc3)CC2)cc1` (stereo not shown) [Example 58, N-(1-(4-((4-Phenylpiperazin-1-yl)methyl)phenyl)ethyl)acetamide Dihydrochloride 1/4 Hydrate], in the data set with IL-10 production, the “IL-10 production (%)” value worked out at 499%. Besides, the “TNF-α production (%)” value with TNF-α production came out at 19%.

Regarding `CC(=O)NCc1ccc(CN2CCN(c3ncccn3)CC2)cc1` [Example 72, N-(4-((4-(Pyrimidin-2-yl)piperazin-1-yl)methyl)phenylmethyl)acetamide], the melting point was in the range of 120 to 121 °C. Also, the “IL-10 production (%)” value in the data set with IL-10 production was 510%. The “TNF-α production (%)” value with TNF-α production is 20%.

As to `CC(=O)NCc1ccc(CN2CCN(c3nccs3)CC2)cc1` [Example 81, N-(4-((4-(Thiazol-2-yl)piperazin-1-yl)methyl)phenylmethyl)acetamide Hydrochloride 1/2 Hydrate], in the data set on IL-10 production, the “IL-10 production (%)” value is 1035%. Besides, the “TNF-α production (%)” value in the data set on TNF-α production was found to be 11%.

Take `CC(=O)NCc1ccc(CN2CCN(c3ccccn3)CC2)cc1` [Example 82, N-(4-((4-(Pyridin-2-yl)piperazin-1-yl)methyl)phenylmethyl)acetamide]: the melting point was 100 to 101 °C. Besides, the “IL-10 production (%)” value with IL-10 production came out at 742%. In addition, the “TNF-α production (%)” value with TNF-α production was 11%.
